From ChEMBL document CHEMBL1158392, “Synthesis and biological evaluation of abietic acid derivatives” (Eur J Med Chem, 2009)
≈ marks a conversion by molar mass, not a printed value. Calls of active or inactive are those of the source. The calls are words filed in the database; no cut-off is given here.

Key:
[1] = Cytotoxicity against african green monkey Vero cells after 48 hrs by MTT assay; type: cell-based; conditions: chlorocebus sabaeus
Aspergillus flavus = experiment: Antifungal activity against Aspergillus flavus ATCC 204304 upto 100 ug/mL after 48 hrs by CLSI M38-A broth dilution method; type: functional, organism-based
Aspergillus niger = experiment: Antifungal activity against Aspergillus niger ATCC 10124 upto 100 ug/mL after 48 hrs by CLSI M38-A broth dilution method; type: functional, organism-based
Human alphaherpesvirus 1 [2] = experiment: Antiviral activity against HSV1 infected in human HeLa cells assessed as viral reduction factor preincubated for 0.5 hrs before infection measured after 36 hrs by end point titration technique relative to control; type: functional
Candida tropicalis = experiment: Antifungal activity against Candida tropicalis CECT 11901 upto 100 ug/mL after 24 hrs by AFST-EUCAST method; type: functional, organism-based
Pichia kudriavzevii = experiment: Antifungal activity against Candida krusei ATCC 6258 upto 100 ug/mL after 24 hrs by AFST-EUCAST method; type: functional, organism-based
Candida albicans = experiment: Antifungal activity against Candida albicans ATCC 10231 upto 100 ug/mL after 24 hrs by AFST-EUCAST method; type: functional, organism-based
HeLa [3] = experiment: Cytotoxicity against human HeLa cells; type: cell-based
[4] = Selectivity index, ratio of CC50 for african green monkey Vero cells to CC50 for human HeLa cells; type: functional
HeLa [5] = experiment: Cytotoxicity against human HeLa cells after 48 hrs by MTT assay; type: functional
Candida parapsilosis = experiment: Antifungal activity against Candida parapsilosis ATCC 22019 upto 100 ug/mL after 24 hrs by AFST-EUCAST method; type: functional, organism-based
Aspergillus fumigatus [6] = experiment: Antifungal activity against Aspergillus fumigatus ATCC 204305 upto 100 ug/mL after 48 hrs by CLSI M38-A broth dilution method; type: functional, organism-based
Aspergillus terreus = experiment: Antifungal activity against Aspergillus terreus CDC 317 upto 100 ug/mL after 48 hrs by CLSI M38-A broth dilution method; type: functional, organism-based
Human alphaherpesvirus 1 [7] = experiment: Antiviral activity against HSV1 infected in human HeLa cells assessed as maximum dose required for highest viral reduction factor preincubated for 0.5 hrs before infection measured after 36 hrs by end point titration technique; type: functional
Aspergillus fumigatus [8] = experiment: Antifungal activity against Aspergillus fumigatus ATCC 204305 after 48 hrs by CLSI M38-A broth dilution method; type: functional; conditions: ATCC 204305, 48 h

Question: With `CC(C)C1=CC2=CC[C@@H]3[C@](C)(CCC[C@@]3(C)C(=O)O)[C@H]2CC1` [ABIETIC ACID] as the molecule, how does the CC50 at 48 h [1] read?
Answer: 52.5 µg/mL (≈ 174 µM)

Question: And the MIC (Aspergillus flavus)?
Answer: inactive

Question: And the MIC (Aspergillus niger)?
Answer: inactive

Question: What about the Activity (Human alphaherpesvirus 1 [2]) of the same molecule?
Answer: inactive

Question: What about the MIC (Candida tropicalis) of the same molecule?
Answer: inactive

Question: What about the MIC (Pichia kudriavzevii) of the same molecule?
Answer: inactive

Question: What about the MIC (Candida albicans) of the same molecule?
Answer: inactive

Question: And the CC100 (HeLa [3])?
Answer: > 100 µg/mL

Question: What about the “Selectivity Index” value [4] of the same molecule?
Answer: 3.5

Question: And the CC50 (HeLa [5])?
Answer: 14.9 µg/mL (≈ 49.3 µM)

Question: What about the MIC (Candida parapsilosis) of the same molecule?
Answer: inactive

Question: What about the MIC (Aspergillus fumigatus [6]) of the same molecule?
Answer: inactive

Question: And the MIC (Aspergillus terreus)?
Answer: inactive

Question: Which CC50 at 48 h [1] does the source give for `COC(=O)[C@]1(C)CCC[C@]2(C)C3=C(CC[C@@H]12)CC(=C(C)C)CC3` here?
Answer: 19.2 µg/mL (≈ 60.7 µM)

Question: What about the MIC (Aspergillus flavus) of the same molecule?
Answer: inactive

Question: What about the MIC (Aspergillus niger) of the same molecule?
Answer: inactive

Question: And the Activity (Human alphaherpesvirus 1 [2])?
Answer: inactive

Question: And the MIC (Candida tropicalis)?
Answer: inactive

Question: What about the MIC (Pichia kudriavzevii) of the same molecule?
Answer: inactive

Question: And the MIC (Candida albicans)?
Answer: inactive

Question: And the CC100 (HeLa [3])?
Answer: 100 µg/mL

Question: And the “Selectivity Index” value [4]?
Answer: 0.4

Question: What about the CC50 (HeLa [5]) of the same molecule?
Answer: 46.6 µg/mL (≈ 147 µM)

Question: What about the MIC (Candida parapsilosis) of the same molecule?
Answer: inactive

Question: What about the MIC (Aspergillus fumigatus [6]) of the same molecule?
Answer: inactive

Question: And the MIC (Aspergillus terreus)?
Answer: inactive

Question: What does the source list for `CC(C)=C1CCC2=C(CC[C@H]3[C@](C)(C(=O)O)CCC[C@]23C)C1`?
Answer: CC50 at 48 h [1]: 43.9 µg/mL (≈ 145 µM); MIC (Aspergillus flavus): inactive; MIC (Aspergillus niger): inactive; Activity (Human alphaherpesvirus 1 [2]): 10; MIC (Candida tropicalis): inactive; MIC (Pichia kudriavzevii): inactive; Activity (Human alphaherpesvirus 1 [7]): 100 µg/mL; MIC (Candida albicans): inactive; CC100 (HeLa [3]): > 100 µg/mL; Selectivity Index [4]: 0.8; CC50 (HeLa [5]): 53.1 µg/mL (≈ 176 µM); MIC (Candida parapsilosis): inactive; MIC (Aspergillus fumigatus [6]): inactive; MIC (Aspergillus terreus): inactive

Question: Which CC50 at 48 h [1] does the source give for `CC(C)=C1CCC2=C(CC[C@H]3[C@](C)(CO)CCC[C@]23C)C1` here?
Answer: 20.2 µg/mL (≈ 70 µM)

Question: What about the MIC (Aspergillus flavus) of the same molecule?
Answer: inactive

Question: What about the MIC (Aspergillus niger) of the same molecule?
Answer: inactive

Question: What about the Activity (Human alphaherpesvirus 1 [2]) of the same molecule?
Answer: inactive

Question: What about the MIC (Candida tropicalis) of the same molecule?
Answer: inactive

Question: What about the MIC (Pichia kudriavzevii) of the same molecule?
Answer: inactive

Question: And the MIC (Candida albicans)?
Answer: inactive

Question: What about the CC100 (HeLa [3]) of the same molecule?
Answer: 100 µg/mL

Question: And the “Selectivity Index” value [4]?
Answer: 1

Question: What about the CC50 (HeLa [5]) of the same molecule?
Answer: 19.7 µg/mL (≈ 68.3 µM)

Question: What about the MIC (Candida parapsilosis) of the same molecule?
Answer: inactive

Question: And the MIC (Aspergillus fumigatus [6])?
Answer: inactive

Question: What about the MIC (Aspergillus terreus) of the same molecule?
Answer: inactive

Question: Which results are given for `CC(C)C1=CC2=CC[C@@H]3[C@](C)(CCC[C@@]3(C)C=O)[C@H]2CC1`?
Answer: CC50 at 48 h [1]: 31.5 µg/mL (≈ 110 µM); MIC (Aspergillus flavus): inactive; MIC (Aspergillus niger): inactive; Activity (Human alphaherpesvirus 1 [2]): 10; MIC (Candida tropicalis): inactive; MIC (Pichia kudriavzevii): inactive; Activity (Human alphaherpesvirus 1 [7]): 12.5 µg/mL; MIC (Candida albicans): inactive; CC100 (HeLa [3]): > 50 µg/mL; Selectivity Index [4]: 5.6; CC50 (HeLa [5]): 5.6 µg/mL (≈ 19.5 µM); MIC (Aspergillus fumigatus [8]): 50 µg/mL (≈ 175 µM); MIC (Candida parapsilosis): inactive; MIC (Aspergillus terreus): inactive

Question: Which results are given for `COC(=O)[C@]1(C)CCC[C@@]2(C)[C@H]1CC=C1C=C(C(C)C)CC[C@@H]12` [METHYL ABIETATE]?
Answer: CC50 at 48 h [1]: 49.4 µg/mL (≈ 156 µM); MIC (Aspergillus flavus): inactive; MIC (Aspergillus niger): inactive; Activity (Human alphaherpesvirus 1 [2]): 10; MIC (Candida tropicalis): inactive; MIC (Pichia kudriavzevii): inactive; Activity (Human alphaherpesvirus 1 [7]): 6.25 µg/mL; MIC (Candida albicans): inactive; CC100 (HeLa [3]): 50 µg/mL; Selectivity Index [4]: 13.7; CC50 (HeLa [5]): 3.6 µg/mL (≈ 11.4 µM); MIC (Candida parapsilosis): inactive; MIC (Aspergillus fumigatus [6]): inactive; MIC (Aspergillus terreus): inactive

Question: Which CC50 at 48 h [1] does the source give for `CC(C)=C1CCC2=C(CC[C@H]3[C@](C)(C=O)CCC[C@]23C)C1` here?
Answer: 55.3 µg/mL (≈ 193 µM)

Question: What about the MIC (Aspergillus flavus) of the same molecule?
Answer: inactive

Question: What about the MIC (Aspergillus niger) of the same molecule?
Answer: inactive

Question: And the Activity (Human alphaherpesvirus 1 [2])?
Answer: inactive

Question: And the MIC (Candida tropicalis)?
Answer: inactive

Question: And the MIC (Pichia kudriavzevii)?
Answer: inactive

Question: What about the MIC (Candida albicans) of the same molecule?
Answer: inactive

Question: What about the CC100 (HeLa [3]) of the same molecule?
Answer: > 100 µg/mL

Question: And the “Selectivity Index” value [4]?
Answer: 1.6

Question: And the CC50 (HeLa [5])?
Answer: 33.4 µg/mL (≈ 117 µM)

Question: And the MIC (Candida parapsilosis)?
Answer: inactive

Question: And the MIC (Aspergillus fumigatus [6])?
Answer: inactive

Question: What about the MIC (Aspergillus terreus) of the same molecule?
Answer: inactive

Question: For `Nc1nc2c(ncn2COCCO)c(=O)[nH]1` [ACYCLOVIR], which Activity (Human alphaherpesvirus 1 [2]) is on record?
Answer: 10

Question: What about the Activity (Human alphaherpesvirus 1 [7]) of the same molecule?
Answer: 6 µg/mL

Question: And the CC100 (HeLa [3])?
Answer: > 600 µg/mL

Question: With `CC(C)C1=CC2=CC[C@H]3[C@](C)(CO)CCC[C@]3(C)[C@H]2CC1` as the molecule, how does the CC50 at 48 h [1] read?
Answer: 12.7 µg/mL (≈ 44 µM)

Question: And the MIC (Aspergillus flavus)?
Answer: inactive

Question: And the MIC (Aspergillus niger)?
Answer: inactive

Question: What about the Activity (Human alphaherpesvirus 1 [2]) of the same molecule?
Answer: 10

Question: And the MIC (Candida tropicalis)?
Answer: inactive

Question: And the MIC (Pichia kudriavzevii)?
Answer: inactive

Question: And the Activity (Human alphaherpesvirus 1 [7])?
Answer: 6.25 µg/mL

Question: What about the MIC (Candida albicans) of the same molecule?
Answer: inactive

Question: What about the CC100 (HeLa [3]) of the same molecule?
Answer: 25 µg/mL

Question: What about the “Selectivity Index” value [4] of the same molecule?
Answer: 2.4

Question: What about the CC50 (HeLa [5]) of the same molecule?
Answer: 5.2 µg/mL (≈ 18 µM)

Question: And the MIC (Candida parapsilosis)?
Answer: inactive

Question: What about the MIC (Aspergillus fumigatus [6]) of the same molecule?
Answer: inactive

Question: And the MIC (Aspergillus terreus)?
Answer: inactive

Question: Which results are given for `CC[C@]1(O)C[C@H]2CN(CCc3c([nH]c4ccccc34)[C@@](C(=O)OC)(c3cc4c(cc3OC)N(C=O)[C@H]3[C@@](O)(C(=O)OC)[C@H](OC(C)=O)[C@]5(CC)C=CCN6CC[C@]43[C@@H]65)C2)C1` [VINCRISTINE]?
Answer: CC50 at 48 h [1]: 1.1 µg/mL (≈ 1.33 µM); Selectivity Index [4]: 22; CC50 (HeLa [5]): 0.05 µg/mL (≈ 0.0606 µM)
